Assay results: US20240009201A1, “CYP11B2 BETA HYDROXYLASE INHIBITORS FOR HYPERTENSION” (MINERALYS THERAPEUTICS, INC., priority 2020, published 2024)
Where a name gives a salt, the structure may show the parent alone.

Experiments:
Format in all cases: in vivo
[1] = target: T1, CYP11B2 (Mus musculus, UniProt P15539); experiment: Radio-telemetry blood pressure in low renin hypertension animal model (Ay mice); conditions: 3 mg/kg/day via mini-osmotic pump, 7 days, FIG. 14
T1 construct: from tissue; host or cells: living mice (endogenous enzyme); obese AY mice, Balb/C mice (Jackson Labs #000651)
T1 sequence (P15539 25-500): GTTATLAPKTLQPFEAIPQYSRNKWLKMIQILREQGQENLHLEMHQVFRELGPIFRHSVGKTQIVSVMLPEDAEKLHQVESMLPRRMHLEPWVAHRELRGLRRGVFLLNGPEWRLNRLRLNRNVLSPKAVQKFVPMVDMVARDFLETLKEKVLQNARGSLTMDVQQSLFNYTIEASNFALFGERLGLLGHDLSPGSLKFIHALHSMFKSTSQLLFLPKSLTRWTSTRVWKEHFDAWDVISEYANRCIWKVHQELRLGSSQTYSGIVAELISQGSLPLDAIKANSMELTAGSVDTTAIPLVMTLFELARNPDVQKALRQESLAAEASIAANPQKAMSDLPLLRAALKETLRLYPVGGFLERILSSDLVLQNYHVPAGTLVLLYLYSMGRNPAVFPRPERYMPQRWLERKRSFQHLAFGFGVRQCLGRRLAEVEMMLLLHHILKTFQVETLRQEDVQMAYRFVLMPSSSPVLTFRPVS
Protocol: Purpose: To determine whether CYP11B2 blockade (via aldosterone synthase inhibition) improves cardiovascular function in an animal model for low renin hypertension.
Animal Model: All experiments were conducted in 12-16-week-old obese AY female mice.
Telemetry Protocol: The telemetry protocol is illustrated in FIG. 13.
Treatment Protocol: Male and female Balb/C mice (Jackson Labs, Bar Harbor, ME, Catalog #000651) at 10 weeks of age were utilized for all studies. Mice were implanted with indwelling telemeters (carotid catheter) (DSI© Model #PA-C10, New Brighton, MN) under isoflurane anesthesia as previously described. Following a 7-day recovery period baseline BP measurements were consciously recorded for 7 days while mice were on normal salt diet (NS) (0.2% NaCl, Teklad #2918, Envigo, United Kingdom). Mice were then treated with the test article (compound of formula (A), LCI699 or CIN-107, calculated to deliver 3 mg/kg/day) infused via an implanted mini-osmotic pump for an additional 7 days.
Blood pressure measurement: For each protocol described in FIG. 13, 12 mice were used to record systolic, diastolic, mean arterial pressure heart rate and activity via radio-telemetry. Telemetry transmitters were implanted in the carotid artery at 12 weeks of age. After 2 weeks of recovery from surgery, baseline blood pressure was recorded for 7 consecutive days. Animals were then submitted to the treatment (compound of formula (A) HBr/LCI/CIN).
Quantification of the effects of compound of formula (A) HBr, LCI, CIN on the degree of RAAS activation: Blood was collected from all the treated mice to investigate the effects of the aldosterone synthase inhibitors on plasma aldosterone, Angiotensin II and indices of RAS activation via LC-MS/MS.

[2] = target: T2, aldosterone synthase (Homo sapiens, UniProt P19099); experiment: Multiple ascending dose (MAD) study
T2 construct: from tissue; host or cells: living human subjects (endogenous adrenal enzyme)
T2 sequence (P19099 25-503): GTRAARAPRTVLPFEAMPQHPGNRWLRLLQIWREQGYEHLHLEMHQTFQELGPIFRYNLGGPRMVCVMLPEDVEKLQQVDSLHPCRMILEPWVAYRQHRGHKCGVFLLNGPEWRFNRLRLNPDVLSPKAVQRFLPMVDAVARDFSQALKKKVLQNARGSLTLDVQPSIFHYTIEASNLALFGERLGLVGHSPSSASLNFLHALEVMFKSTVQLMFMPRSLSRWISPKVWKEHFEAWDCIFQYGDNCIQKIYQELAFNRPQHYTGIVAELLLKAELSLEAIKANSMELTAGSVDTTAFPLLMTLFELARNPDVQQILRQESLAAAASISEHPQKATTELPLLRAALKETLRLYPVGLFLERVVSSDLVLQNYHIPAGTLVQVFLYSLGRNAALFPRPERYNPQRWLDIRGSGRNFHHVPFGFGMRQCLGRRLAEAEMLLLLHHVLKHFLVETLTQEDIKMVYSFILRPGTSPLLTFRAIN
Protocol: (§1) Single Ascending Dose (SAD) and Multiple Ascending Dose (MAD) Study
(§2) A randomized, double-blinded, placebo-controlled study was conducted in which 116 patients were randomized and 87 received the compound of Formula A in the form of an HBr salt.

[3] = target: T2, aldosterone synthase; experiment: Randomized, double-blinded, placebo-controlled SAD and MAD study (overall findings)
Text: Aldosterone is produced by an aldosterone synthase, encoded by the gene CYP11B2. Aldosterone synthase catalyzes the final 3 steps in aldosterone synthesis, sequentially (1) from 11-deoxycorticosterone (11-DOC) to corticosterone, (2) from corticosterone to 18-OH-corticosterone, and (3) from 18-OH-corticosterone to aldosterone. […] 11β-hydroxylase catalyzes the conversion of 11-deoxycortisol to cortisol, and 11-deoxycorticosterone (11-DOC) to corticosterone.
Because 11-DOC is a substrate for both CYP11B1 and CYP11B2, use of a selective aldosterone synthase inhibitor which preserves the activity of CYP11B1 is important for preventing accumulation of the precursor 11-DOC.
as §1, §2

[4] = target: T2, aldosterone synthase; experiment: Single ascending dose (SAD) study
Protocol: as §1, §2
Exposure above about 3-4 times the inhibition constant (Ki) was associated with duration of aldosterone suppression (FIG. 4).

Structure (SMILES): CCC(=O)N[C@@H]1CCCc2c(-c3ccc4c(c3)CCC(=O)N4C)cncc21 [CIN-107]
- mean arterial blood pressure (MAP) [1]: reduced MAP to a similar degree and to a value comparable to that seen in control mice

Structure (SMILES): CC(=O)N[C@H]1CC[C@H](NC(=O)CN2CCN(c3nncc(-c4ccc(C)cc4)n3)CC2)CC1 [Compound A HBr, N-[trans-4-(acetylamino)cyclohexyl]-2-{4-[5-(4-methylphenyl)-1,2,4-triazin-3-yl]piperazin-1-yl}acetamide monohydrobromide]
- mean arterial blood pressure (MAP) [1]: reduced MAP to a similar degree and to a value comparable to that seen in control mice
- 11-DOC level ([2]; 360 mg dose level, FIG. 7): Accumulation of 11-DOC
- serum aldosterone during the washout phase ([2]; 360 mg dose, FIG. 6): overshoot in serum aldosterone
- Plasma Renin Activity (PRA) ([2]; FIG. 9): dose-dependent increase
- dose giving 50% of maximum increase in Plasma Renin Activity (PRA) ([2]; FIG. 9): 40 mg
- benefits on renal tubular sodium excretion ([2]; FIG. 12): seen at lower doses than are required for stimulation of renin and accumulation of 11-DOC
- serum K+ ([2]; all doses tested, FIG. 10): physiological, non-adverse, increase in K^+
- adrenocorticotropic hormone (ACTH)-stimulated aldosterone secretion ([2]; all doses tested, FIG. 11): suppression of adrenocorticotropic hormone (ACTH)-stimulated aldosterone secretion
- dose-effect on duration of maximum aldosterone suppression ([2]; day 7, FIG. 8): consistent with the SAD study
- drug accumulation ([2]; multiple dosing): little drug accumulation
- clinical laboratory, vital signs, ECGs or physical examination ([3]; SAD/MAD study): No clinically significant findings
- deaths or serious adverse events (SAEs) ([3]; SAD/MAD study): No deaths or serious adverse events (SAEs) occurred
- effect on cortisol levels ([3]; SAD/MAD study): no effect on cortisol levels
- hyperkalemia ([3]; SAD/MAD study): No hyperkalemia was noted
- plasma aldosterone ([3]; SAD/MAD study, 87 received the compound): rapid and durable reduction/suppression of plasma aldosterone
- adverse events (AEs) ([3]; compound groups vs placebo groups): comparable between the groups receiving the compound and placebo groups
- serum cortisol ([4]; FIG. 2 (AUC-24)): no evidence of dose-dependent reduction in serum cortisol
- exposure associated with duration of aldosterone suppression ([4]; FIG. 4 (Cpu/Ki)): 3-4 times the inhibition constant (Ki)
- duration of maximum aldosterone suppression ([4]; FIG. 5): dose-dependent increase
- reduction of serum aldosterone ([4]; dose of 50 mg, FIG. 1 (AUC-24)): 50%

Structure (SMILES): N#Cc1ccc([C@H]2CCc3cncn32)c(F)c1 [LCI699]
- mean arterial blood pressure (MAP) [1]: reduced MAP to a similar degree and to a value comparable to that seen in control mice

Structure (SMILES): CC(=O)N[C@H]1CC[C@H](NC(=O)CN2CCN(c3nncc(-c4ccc(C)cc4)n3)CC2)CC1 [compound of Formula (A), N-[trans-4-(acetylamino)cyclohexyl]-2-{4-[5-(4-methylphenyl)-1,2,4-triazin-3-yl]piperazin-1-yl}acetamide]
- dose range of aldosterone suppression without increase in 11-DOC or change in cortisol production (selectivity) ([3]; in vivo): wide does range at which aldosterone is suppressed without an increase in 11-DOC or change in cortisol production
